Legend:
Type in all cases: in vivo
plasma cholesterol = experiment: Cholesterol lowering in hypercholesterolemic rats
[1] = Continuous infusion study in rats on a cholesterol-containing diet; conditions: continuous infusion 1 mg/kg/day
Method: Screening for thyromimetic activity was performed in normal rats maintained on a cholesterol-containing diet. Compounds were administered by continuous infusion using an osmotic pump at 1 mg/kg/day.

serum cholesterol = experiment: Subacute study in cholesterol-fed rats, IP: serum cholesterol; conditions: IP once-a-day for seven days

Cc1cc(OCP(=O)(O)O)cc(C)c1Cc1ccc(O)c(C(C)C)c1 [Compound 7, [3,5-dimethyl-4-(4′-hydroxy-3′-iso-propylbenzyl)phenoxy]methylphosphonic acid]
change in vivo at 0.2 mg/kg/day (plasma cholesterol; Rattus norvegicus, ip, delivered i.p (0.2 mg/kg/d), percentage change from pre-dose cholesterol, read-out: % Cholesterol Lowering): -41.5%
efficacy in lowering cholesterol (plasma cholesterol; another experiment, hypercholesterolemic rats): efficacious
cholesterol lowering effects ([1]; day 7 and day 14): demonstrated cholesterol lowering effects
cardiovascular parameters (heart rate, LV dP/dt, systolic and diastolic blood pressure) ([1]; day 7 or day 14): no changes in any of the cardiovascular parameters
doses that significantly decreased serum cholesterol (serum cholesterol): 1 to 100 mg/kg/day

From patent publication US20090028925A1, “Novel Phosphinic Acid-Containing Thyromimetics” (priority 2005, published 2009)
